In patent publication US20070004758A1, “COMPOSITIONS AND TREATMENTS FOR INHIBITING KINASE AND/OR HMG-COA REDUCTASE” (priority 2004, published 2007):
Where a name gives a salt, the structure may show the parent alone.

Experiments:
[1] = system: oxazolone-induced mouse ear swelling; experiment: Model for inhibition of topical inflammation (oxazolone-induced mouse ear swelling); type: in vivo, BALB/c male mice; settings: topical to right ear, ear thickness 24 hours after challenge
Method: Left ears were untreated. The thickness of both ears of each animal was measured with a Dyer model micrometer gauge 24 hours after oxazolone challenge, and the net increase in thickness of right ears versus left ears was calculated for each animal. Percent inhibition was calculated according to the formula: [(Iv−It)/Iv]×100, where Iv and It respectively refer to the average net increase in right ear thickness (mm) for vehicle and candidate compound treated mice.

[2] = system: LPS-induced TNF-α release from human peripheral blood mononuclear cells; experiment: Whole cell LPS-stimulated TNF-α release assay; type: cell-based; settings: Table III; inhibition of LPS-induced TNF-α release from human PBMC by 50%
Method: The procedure as described in Welker et al., Int. Arch. Allergy and Immunol. 109:110-115 (1996) can be followed. Briefly, a candidate compound and/or vehicle can be preincubated with human peripheral blood mononuclear leukocytes (PBML, 5×10^5/ml) cells in AIM-V medium pH 7.4 for 2 hours. Lipopolysaccharide (LPS, 25 ng/ml) can be added to stimulate the cells, which can be incubated overnight at 37° C. TNF-α cytokine levels in the conditioned medium can then be quantitated using a sandwich ELISA kit.

Row | SMILES | % Inh. of oxazolone-induced mouse ear swelling ([1]; dose 2 × 0.3 mg) [%] | % Inh. of oxazolone-induced mouse ear swelling ([1]; dose 2 × 1 mg) [%] | % Inh. of oxazolone-induced mouse ear swelling ([1]; dose 2 × 2 mg) [%] | IC50 [2] [µM]
1 | CC(C)c1c(C(=O)Nc2ccccc2)c(-c2ccccc2)c(-c2ccc(F)cc2)n1CC[C@@H](O)C[C@@H](O)CC(=O)O [Atorvastatin sodium] | 9 | 31 | 63 | –
2 | O=C(O)C[C@H](O)C[C@H](O)/C=C/c1c(-c2ccccc2)nn(-c2ccnc(Nc3ccccc3)n2)c1-c1ccccc1 [Example 11a, (3R,5S,E)-7-(3,5-diphenyl-1-(2-(phenylamino)pyrimidin-4-yl)-1H-pyrazol-4-yl)-3,5-dihydroxyhept-6-enoic Acid Calcium Salt] | – | – | – | 31
3 | O=C(O)C[C@H](O)C[C@H](O)/C=C/c1cnn(-c2ccnc(Nc3ccccc3)n2)c1-c1cccc(C(F)(F)F)c1 [Example 11g, (3R,5S,E)-3,5-dihydroxy-7-(1-(2-(phenylamino)pyrimidin-4-yl)-5-(3-(trifluoromethyl)phenyl)-1H-pyrazol-4-yl)hept-6-enoic acid calcium salt] | – | – | – | 52
4 | CC(C)n1c(/C=C/C(O)CC(O)CC(=O)O)c(-c2ccc(F)cc2)c2ccccc21 (stereo not drawn) [Fluvastatin sodium] | 28 | – | – | –
5 | O=C([O-])C[C@H](O)C[C@H](O)/C=C/c1c(C2CC2)nc2ccccc2c1-c1ccc(F)cc1.O=C([O-])C[C@H](O)C[C@H](O)/C=C/c1c(C2CC2)nc2ccccc2c1-c1ccc(F)cc1.[Ca+2] [Pitavastatin calcium] | 9 | – | 60 | –
6 | CC(C)c1nc(N(C)S(C)(=O)=O)nc(-c2ccc(F)cc2)c1/C=C/[C@@H](O)C[C@@H](O)CC(=O)O [Rosuvastatin sodium] | 20 | – | – | –
